This is an account of results in publication PMC12656219, “Cytotoxic Effects Induced by Combined Exposure of the Patulin, Ochratoxin A, and Acetamiprid to HK-2 and SK-N-SH Cell Lines” (Toxins, 2025).

In assay [1] the test system is SK-N-SH cells. Put plainly: CCK-8 cell viability, individual and combined exposure (CI/DRI analysis), SK-N-SH cells. It is filed as cell-based, human. The settings on record: for IC50: Homo sapiens. Here is the method: (§1) The cytotoxicity of individual contaminations was evaluated using dose–response curves, from which half-maximal inhibitory concentration (IC50) values were calculated. Contaminant concentration and exposure duration were identified as the primary determinants influencing cytotoxic responses. Concentrations employed in the binary and ternary combination assays were selected based on IC50 values obtained from individual treatments in HK-2 and SK-N-SH cell lines.
(§2) Due to the high binding affinity of OTA for serum proteins, all treatments were conducted in medium supplemented with 2% FBS to minimize potential interference with toxicological outcomes. For cytotoxicity evaluation, 100 μL of cell suspension (8 × 10^3 cells/well) was seeded into 96-well plates. Upon reaching approximately 80% confluence, the culture medium was replaced with fresh medium containing varying concentrations of PAT, OTA, ACM, or their combinations. Cells were then incubated for 24 or 48 h, after which cell viability was assessed. Concentrations used for individual mycotoxin exposures are provided in Table S1, while those for binary and ternary mixture exposures are listed in Table S2.
(§3) Cells were diluted to a density of 8 × 10^3 cells/well and seeded in 96-well culture plates. After 24 h incubation, all cells were exposed to various concentrations of individual or combined contaminants and allowed to grow in an incubator for 24 h and 48 h, respectively. The cytotoxicity of the two different cell lines was determined using a CCK-8 kit according to the manufacturer’s instructions. After treatment, 10 μL CCK-8 solution was added to each well (10% culture volume) and incubated for 2 h at 37 °C. Absorbance values (A) were measured at 450 nm using a microplate reader (Thermo Fisher Scientific, Waltham, MA, USA). All treatments were performed in six replicates, and cell activity was calculated as follows: Cell Viability(%)=Aexperiment −A(blank)/Acontrol−A(blank)× 100
(§4) The dose–effect relationship for PAT, OTA, and ACM was calculated using the […] proposed by Chou and Talalay. fa/fu=D/Dm^m
(§5) D was the concentration of the contamination, fa was the cell proliferation inhibition rate, and fu was the unaffected fraction (fu = 1 − fa). Dm was the median effect dose for the 50% inhibition of cell proliferation. m was the coefficient indicating the shape of the dose–effect relationship (m = 1, m > 1, and m < 1 each indicated hyperbolic, sigmoidal, and flat sigmoidal dose–effect curves). The method employed the Dm parameter to measure the cytotoxicity of individual contamination.
(§6) When the composition of contaminations extended to binary or ternary, the interactions of multiple contaminations were assayed by means of combination index model (CI) based on the median effect principle, as the CI values calculated according to a generic formula: nCIx=∑j=1n(D)j/(Dx)j
(§7) ^n(CI)x referred to n kind of contaminant combined cell inhibition rate for x% of composite index, (D)j was referred to the joint action of n type of toxin to a total dose of x% cell inhibition rate, and (Dx)j referred to the combination of each contamination effect itself when dose of x% cell inhibition rate. Overall, the types of combined effects represented by CI = 0.9–1.1, CI < 0.9, and CI > 1.1 were additive, synergistic, and antagonistic, respectively.
(§8) In addition, the impact of contaminants on the combined effects was assessed using the dose reduction index (DRI). DRI indicated a multiplicative reduction in the dose required to produce the same effect when the contaminant was mixed compared to when used alone. […] The DRI was calculated as follows: n(CI)x=∑j=1n(D)j/(Dm)j=∑j=1n1/(DRI)j or (DRI)j=(D)j/(Dm)j
(§9) The IC50 values of the three different contaminations exposed to the two cell lines was calculated by GraphPad Prism 9.4.0 software. […]

In assay [2] the test system is HK-2 cells. Put plainly: CCK-8 cell viability, individual and combined exposure (CI/DRI analysis), HK-2 cells. The settings on record: for DRI (dose reduction index): in PAT+OTA+ACM group, from low to high doses; for IC50: Homo sapiens. It is filed as cell-based, human. The method, then:
as §1, §2, §3, §4, §5, §6, §7, §8, §9

Assay [3] deals with SK-N-SH cells. To be noted: 24 h; cited from earlier work.
The test system of assay [4] is Caco-2 cells. To be noted: cited from earlier work.
[5] abbreviates: SK-N-SH cells, 24 h, CCK-8, mean ± SEM, n = 6, read-out: IC50.
[6] abbreviates: SK-N-SH cells, 48 h, CCK-8, mean ± SEM, n = 6, read-out: IC50.
Setting [7] is: HK-2 cells, 24 h, CCK-8, mean ± SEM, n = 6, read-out: IC50.
[8] abbreviates: HK-2 cells, 48 h, CCK-8, mean ± SEM, n = 6, read-out: IC50.
Where [9] appears, read: SK-N-SH, 24 h, in PAT+OTA group.

Where two headings read alike, the source gives them in different places.

The IC50 is the midpoint of a concentration-inhibition curve. With `C/C(=N\C#N)N(C)Cc1ccc(Cl)nc1` [ACM, acetamiprid], the IC50 was 700 ± 34.4 mg/L in assay [1] (setting [5]); 550 ± 31.6 mg/L in assay [1] (setting [6]); 1160 ± 38.7 mg/L in assay [2] (setting [7]); 900.2 ± 4.1 mg/L in assay [2] (setting [8]); around 10600 µM in assay [3]. In addition, the “DRI (dose reduction index)” value in assay [2] (HK-2, 24 h) was “greater than 1”.
With `C[C@@H]1Cc2c(Cl)cc(C(=O)N[C@@H](Cc3ccccc3)C(=O)O)c(O)c2C(=O)O1` [OTA, ochratoxin A], the IC50 was 7 ± 0.357 mg/L in assay [1] (SK-N-SH, 24 h); 4.5 ± 0.415 mg/L in assay [1] (SK-N-SH, 48 h); 145 µM in assay [4]; 2.5 ± 0.049 mg/L in assay [2] (HK-2, 24 h); 1 ± 0.021 mg/L in assay [2] (HK-2, 48 h). Further, the “DRI (dose reduction index)” value in assay [1] (setting [9]) is “greater than 1”; in assay [1] (SK-N-SH, 48 h, in OTA+ACM group, Fa > 0.5) it was “greater than 1”.
With `O=C1C=C2C(=CCOC2O)O1` (centres unmarked) [PAT, Patulin], the 50% inhibitory concentration (IC50) is 0.5 ± 0.024 mg/L in assay [1] (setting [5]); 0.25 ± 0.001 mg/L in assay [1] (setting [6]); 16 µM in assay [4]; 0.5 ± 0.005 mg/L in assay [2] (setting [7]); 0.4 ± 0.006 mg/L in assay [2] (setting [8]). In addition, the “DRI (dose reduction index)” value in assay [1] (setting [9]) is “greater than 1”; in assay [2] (HK-2, 24 h), “greater than 1”.
